Results published in US11542470B2, “Methods of differentiating stem cell-derived proprioceptors” (MEMORIAL SLOAN-KETTERING CANCER CENTER, priority 2016, dated 2023).

Assays:
[1] = test system: rodent GSK3β homologs; settings: cited from earlier work
[2] = test system: human stem cells; assay: Differentiation of human stem cells into sensory neuron subtypes in E8/E6 medium (TrkA, TrkB, TrkC); assay type: cell-based; settings: CHIR99021 3 μM, 1.5 μM and 0.75 μM from day 2 through day 12, FIG. 3B
Method: An E8/E6 medium was used to differentiate human stem cells into sensory neurons, including nociceptors, proprioceptors, and mechanoceptors. […] On day 4, day 8, day 12, and day 16, the cells were measured for CD49d expression. […] On day 16 and day 20, cells were stained for BRN3A, TUJ1, and DAPI. […] TrkA is a nociceptor marker, TrkB is a mechanoreceptor marker, and TrkC is a proprioceptor marker.

## Cc1c[nH]c(-c2cnc(NCCNc3ccc(C#N)cn3)nc2-c2ccc(Cl)cc2Cl)n1 [CHIR99021, 6-(2-(4-(2,4-dichlorophenyl)-5-(4-methyl-1H-imidazol-2-yl)pyrimidin-2-ylamino)ethylamino)nicotinonitrile]
[1]
  IC50 values against rodent GSK3β homologs: nanomolar
[2]
  generation of the three sensory neuron subtypes (nociceptors, proprioceptors, mechanoreceptors): generated at similar efficiencies
